This is an account of results in patent US10076519B2 (CYTOKINETICS, INC., priority 2010, dated 2018).

Structures are written as SMILES.

The first assay relates to rabbit skeletal myofibrils (fast skeletal myofibrils). Description: Activation of fast skeletal myofibrils (PUMA assay, PK/LDH-coupled ATPase at pCa25). The following applies: AC1.4 determined according to the procedure of Example 39; reported as class symbols. It is filed as biochemical. A digest of the protocol: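 ATPase activity of Triton-washed rabbit skeletal myofibrils, roughly 90% fast fibres, tracked by NADH loss at 340 nm through a PK/LDH-coupled ADP-regenerating system. Calcium set to 25% of maximal activity (pCa25), in PIPES 12 mM pH 6.8 with 2 mM MgCl2 and 1 mM DTT; AC1.4 reported.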
Take `NC(=O)c1cccc(-c2ccc(NCC3CCCc4ccccc43)nn2)c1` (stereo not drawn): the “Mean AC1.4” value was “B (B=1-10 uM)”.
On the same count and under the same terms, to `CC(C)(CNc1ccc(-c2ccc3[nH]nc(N)c3c2)nn1)c1cccc(C(N)=O)c1` belongs “D (D=>20 uM)”; to `CC(C)(CNc1ccc(-c2ccc(C(=O)O)c(F)c2)nn1)c1ccc(F)cc1` [2-fluoro-4-(6-{[2-(4-fluorophenyl)-2-methylpropyl]amino}pyridazin-3-yl)benzoic acid], “D (D=>20 uM)”.
Still for that read-out and setting: to `COc1ncc(-c2ccc(NCC3(c4ccc(F)cc4)CCC3)nn2)cn1` [{[(4-fluorophenyl)cyclobutyl]meth-yl}[6-(2-methoxypyrimidin-5-yl)pyridazin-3-yl]amine] belongs “B (B=1-10 uM)”.
On the same count and under the same terms, to `CC(C)(CNc1ccc(C(=O)N[C@H](Cc2ccccc2)C(N)=O)nn1)c1ccc(F)cc1` [N-((1R)-1-carbamoyl-2-phenylethyl)(6-{[2-(4-fluorophenyl)-2-methylpropyl]amino}pyridazin-3-yl)carboxamide] belongs “C (C=10-20 uM)”; to `Nc1n[nH]c2ccc(-c3ccc(NCC4(c5ccc(F)cc5)CC4)nn3)cc12` [[6-(3-amino(1H-indazol-5-yl))pyridazin-3-yl]{[(4-fluorophenyl)cyclopropyl]meth-yl}amine], “A (A=<1 uM)”.
On to `N=C(N)Nc1ccc(-c2ccc(NCC3(c4ncccc4F)CCC3)nn2)cc1`, for which the “Mean AC1.4” value is given as “B (B=1-10 uM)”.
Still for that read-out and setting: to `Nc1n[nH]c2ccc(-c3ccc(NCC4(c5ccccc5)CC4)nn3)cc12` belongs “A (A=<1 uM)”; to `NCC(=O)Nc1n[nH]c2ccc(-c3ccc(NCC4(c5ncccc5F)CCC4)nn3)cc12`, “B (B=1-10 uM)”.
Same read-out and setting: then `CC(=O)NCc1ccc(-c2ccc(NCC(C)(C)c3ccc(F)cc3)nn2)cn1` [N-{[5-(6-{[2-(4-fluorophenyl)-2-methylpropyl]amino}pyridazin-3-yl)-2-pyridyl]methyl}acetamide], with “C (C=10-20 uM)”.
Same read-out and setting: then `CC1(C)C(=O)Nc2cc(-c3ccc(NCC4(c5ncccc5F)CCC4)nn3)ccc21`, with “D (D=>20 uM)”.
In the case of `CC(C)(CNc1ccc(-c2ccc(CN)nc2)nn1)c1ccc(F)cc1` [{6-[6-(aminomethyl)(3-pyridyl)]pyridazin-3-yl}[2-(4-fluorophenyl)-2-methylpropyl]amine], the “Mean AC1.4” value was “B (B=1-10 uM)”.
The same measure, in the same setting: to `COc1cccc(C2(CNc3ccc(-c4cc(C(N)=O)ccc4F)nn3)CCC2)n1` belongs “A (A=<1 uM)”.
Still for that read-out and setting: then `CC(C)(CNc1nnc(-c2cccc(C(N)=O)c2)cc1C(N)=O)c1ccc(F)cc1` [6-(3-carbamoylphenyl)-3-{[2-(4-fluorophenyl)-2-methylpropyl]amino}pyridazine-4-carboxamide], with “B (B=1-10 uM)”; and `CC(=O)Nc1nc2cc(-c3ccc(NCC(C)(C)c4ccc(F)cc4)nn3)ccc2[nH]1` [N-[6-(6-{[2-(4-fluorophenyl)-2-methylpropyl]amino}pyridazin-3-yl)benzimidazol-2-yl]acetamide], with “A (A=<1 uM)”.

Staying with this assay, now noted: median AC1.4 class, procedure of Example 39.
Turning to `O=C(NCc1cnc(-c2ccc(NCC3(c4ncccc4F)CCC3)nn2)s1)[C@H]1CS(=O)(=O)CCN1` [((3S)-1,1-dioxo(1,4-thiazaperhydroin-3-yl))-N-({2-[6-({[(3-fluoro(2-pyridyl))cyclobutyl]methyl}ami-no)pyridazin-3-yl](1,3-thiazol-5-yl)}methyl)carboxamide], the “Mean AC1.4” value is listed as “A (A=<1 uM)”.
For `N#Cc1ccc(C2(Nc3ccc(-c4cc(C(N)=O)ccc4F)nn3)CCC2)nc1`, the “Mean AC1.4” value was “D (D=>20 uM)”.
On the same count and under the same terms, to `NC(=O)c1ccc(-c2ccc(NCC3(c4ncccc4F)CCC3)nn2)cc1O` belongs “B (B=1-10 uM)”.
The same measure, in the same setting: then `NC(=O)c1ccc(C2(Nc3ccc(-c4cccc(C(N)=O)c4)nn3)CCC2)cc1`, with “D (D=>20 uM)”.
Same read-out and setting: then `NC1(C(=O)NCc2cnc(-c3ccc(NCC4(c5ncccc5F)CCC4)nn3)s2)CC1` [(aminocyclopropyl)-N-({2-[6-({[(3-fluoro(2-pyridyl))cyclobutyl]methyl}ami-no)pyridazin-3-yl](1,3-thiazol-5-yl)}methyl)carboxamide], with “A (A=<1 uM)”; and `COC(=O)c1csc(-c2ccc(NCC3(c4ncccc4F)CCC3)nn2)n1` [methyl 2-[6-({[(3-fluoro-2-pyridyl)cyclobutyl]methyl}ami-no)pyridazin-3-yl]-1,3-thiazole-4-carboxylate], with “D (D=>20 uM)”; and `CS(=O)(=O)Nc1cccc(-c2ccc(NC3(c4cccc(OC(F)F)n4)CCC3)nn2)c1`, with “A (A=<1 uM)”.
Turning to `Fc1cccnc1C1(Nc2ccc(-c3ccc4[nH]ncc4c3)nn2)CCC1` [(6-(1H-indazol-5-yl)pyridazin-3-yl)[(3-fluoro(2-pyridyl))cyclobutyl]amine], the “Mean AC1.4” value was “B (B=1-10 uM)”.
On the same count and under the same terms, then `Fc1cccnc1C1(CNc2ccc(-c3cnccn3)nn2)CCC1` [{[(3-fluoro(2-pyridyl))cyclobutyl]methyl}(6-pyrazin-2-ylpyridazin-3-yl)amine], with “B (B=1-10 uM)”; and `Cn1nc(-c2ccc(NCC3(c4ncccc4F)CCC3)nn2)cc1C(N)=O`, with “B (B=1-10 uM)”; and `NCC(F)(F)CNC(=O)c1cnc(-c2ccc(NCC3(c4ncccc4F)CCC3)nn2)s1` [N-(3-amino-2,2-difluoropropyl){2-[6-({[(3-fluoro(2-pyridyl))cyclobutyl]methyl}ami-no)pyridazin-3-yl](1,3-thiazol-5-yl)}carboxamide], with “A (A=<1 uM)”.
Still for that read-out and setting: then `CC(O)c1cnc(-c2ccc(NCC3(c4ncccc4F)CCC3)nn2)s1` (stereo not drawn) [1-{2-[6-({[(3-fluoro-2-pyridyl)cyclobutyl]methyl}ami-no)pyridazin-3-yl]-1,3-thiazol-5-yl}ethan-1-ol], with “B (B=1-10 uM)”.
On the same count and under the same terms, to `CC(C)(Nc1ccc(-c2cccc(C(N)=O)c2)nn1)c1ccccn1` [3-{6-[(1-methyl-1-(2-pyridyl)ethyl)amino]pyridazin-3-yl}benzamide] belongs “D (D=>20 uM)”; to `CC(C)(O)c1cnc(-c2ccc(NCC3(c4ncccc4F)CCC3)nn2)s1` [2-{2-[6-({[(3-fluoro-2-pyridyl)cyclobutyl]methyl}ami-no)pyridazin-3-yl]-1,3-thiazol-5-yl}propan-2-ol], “C (C=10-20 uM)”.
Take `Fc1cccnc1C1(CNc2ccc(-c3ncccc3Cl)nn2)CCC1` [[6-(3-chloro(2-pyridyl))pyridazin-3-yl]{[(3-fluoro(2-pyridyl))cyclobutyl]methyl}amine]: the “Mean AC1.4” value was “C (C=10-20 uM)”.
`NC(=O)c1ccc(F)c(-c2ccc(NC3(c4ccc(OC(F)F)cn4)CCC3)nn2)c1`: the “Mean AC1.4” value is “D (D=>20 uM)”.
The same measure, in the same setting: to `COC(=O)c1ccc(F)c(-c2ccc(NC[C@]3(c4ncccc4F)C[C@H](F)C3)nn2)c1` [methyl 4-fluoro-3-[6-({[3-fluoro-1-(3-fluoro(2-pyridyl))cyclobutyl]methyl}ami-no)pyridazin-3-yl]benzoate] belongs “B (B=1-10 uM)”.
The same measure, in the same setting: to `COC(=O)c1cnc(-c2ccc(NCC3(c4ncccc4F)CCC3)nn2)o1` [methyl 2-[6-({[(3-fluoro-2-pyridyl)cyclobutyl]methyl}ami-no)pyridazin-3-yl]-1,3-oxazole-5-carboxylate] belongs “D (D=>20 uM)”; to `NC(=O)c1ccc2nc(-c3ccc(NCC4(c5ncccc5F)CCC4)nn3)sc2n1` [2-[6-({[(3-fluoro-2-pyridyl)cyclobutyl]methyl}ami-no)pyridazin-3-yl]-1,3-thiazolino[5,4-b]pyridine-5-carboxamide], “D (D=>20 uM)”.
Still for that read-out and setting: then `CC(O)(c1cnc(-c2ccc(NCC3(c4ncccc4F)CCC3)nn2)s1)C(F)(F)F` (stereo not drawn) [1,1,1-trifluoro-2-{2-[6-({[(3-fluoro(2-pyridyl))cyclobutyl]methyl}ami-no)pyridazin-3-yl](1,3-thiazol-5-yl)}propan-2-ol], with “C (C=10-20 uM)”.

Staying with this assay, now noted: median AC1.4 reported as class; procedure of Example 39.
Regarding `NC(=O)Cc1csc(-c2ccc(NCC3(c4ncccc4F)CCC3)nn2)n1` [2-{2-[6-({[(3-fluoro-2-pyridyl)cyclobutyl]methyl}ami-no)pyridazin-3-yl]-1,3-thiazol-4-yl}acetamide], the “Mean AC1.4” value is “D (D=>20 uM)”.
Still for that read-out and setting: to `O=C(NC(CO)CO)c1cccc(-c2ccc(NC[C@]3(c4ncccc4F)C[C@H](F)C3)nn2)c1` [{3-[6-({[3-fluoro-1-(3-fluoro(2-pyridyl))cyclobutyl]methyl}ami-no)pyridazin-3-yl]phenyl}-N-[2-hydroxy-1-(hydroxymethyl)ethyl]carboxamide] belongs “B (B=1-10 uM)”; to `O=C(NC1CCS(=O)(=O)C1)c1cccc(-c2ccc(NC[C@]3(c4ncccc4F)C[C@H](F)C3)nn2)c1` (stereo partly drawn) [N-(1,1-dioxothiolan-3-yl){3-[6-({[3-fluoro-1-(3-fluoro(2-pyridyl))cyclobutyl]methyl}ami-no)pyridazin-3-yl]phenyl}carboxamide], “B (B=1-10 uM)”.
For `Nc1ccc(-c2ccc(NC[C@]3(c4ncccc4F)C[C@H](F)C3)nn2)cn1` [[6-(6-amino(3-pyridyl))pyridazin-3-yl]{[3-fluoro-1-(3-fluoro(2-pyridyl))cyclobutyl]methyl}amine], the “Mean AC1.4” value is reported as “A (A=<1 uM)”.
Same read-out and setting: to `CNC(=O)c1ccc(NCC2(c3ncccc3F)CCC2)nn1` [[6-({[(3-fluoro(2-pyridyl))cyclobutyl]methyl}ami-no)pyridazin-3-yl]-N-methylcarboxamide] belongs “D (D=>20 uM)”.
Take `O=C(O)c1cc(-c2ccc(NC[C@]3(c4ncccc4F)C[C@H](F)C3)nn2)ccc1F` [2-fluoro-5-[6-({[3-fluoro-1-(3-fluoro(2-pyridyl))cyclobutyl]methyl}ami-no)pyridazin-3-yl]benzoic acid]: the “Mean AC1.4” value is recorded as “B (B=1-10 uM)”.
Still for that read-out and setting: then `O=C(O)C1CCc2sc(-c3ccc(NCC4(c5ncccc5F)CCC4)nn3)nc21` (stereo not drawn) [2-[6-({[(3-fluoro-2-pyridyl)cyclobutyl]methyl}ami-no)pyridazin-3-yl]-4,5,6-trihydrocyclopenta[1,2-d]1,3-thiazole-4-carboxylic acid], with “D (D=>20 uM)”.
